In patent publication US12281299B2, “Control of nitrogen fixation in rhizobia that associate with cereals” (Massachusetts Institute of Technology, priority 2019, dated 2025):

Key:
P. protegens Pf-5 [1] = assay: Genetic part characterization for P. protegens (promoters, RBSs, terminators, inducible systems; fluorescence reporter, flow cytometry); type: cell-based, Pseudomonas protegens; details: Ptac promoter and Lad (Q18M/A47V/F161Y) protein, 1 mM IPTG, P. protegens Pf-5
Source text: Construction and characterization genetic parts for P. protegens. Genetic part libraries were built on a pRO1600-ori plasmid pMR-2 using Gibson assembly (New England Biolabs, Cat # E2611). The fluorescence proteins, GFPmut3b and mRFP1 were used as reporters. The Anderson promoter library on the BioBricks Registry were utilized for the characterization of constitutive promoters (FIGS. 11A-11C). The following combinations of cognate regulators and inducible promoters were characterized. IPTG inducible LacI-Ptac, DAPG inducible PhlF-PPhl, aTc inducible TetR-PTet, 3OC6HSL inducible LuxR-PLux, arabinose inducible AraC-PBAD, cuminic acid inducible CymR-PCym, and naringenin inducible FdeR-PFde were optimized (FIGS. 15A-15C). […] RBS library for GFP was designed using the RBS library calculator at the highest-resolution mode, and the 3′ end of the 16S rRNA sequences were adjusted according to the species (3′-ACCTCCTTA-5′ for P. protegens Pf-5). Terminators for T7 RNAP were characterized by placing a terminator between two fluorescence reporters expressed from a single T7 wild-type promoter located upstream of the first fluorescence protein GFP. The expression of the two fluorescence proteins is enabled by an IPTG-inducible T7 RNAP expression system of the controller strain MR7 (FIGS. 13A-13B). All genetic parts for P. protegens Pf-5 were characterized as follows.

P. protegens Pf-5 [2] = assay: Characterization of genomically integrated controllers (T7 promoter GFP reporter), P. protegens Pf-5; type: cell-based, Pseudomonas protegens; details: P. protegens Pf-5 controller strain MR7, reporter plasmid pMR-80
Source text: Genomic integration and characterization of controllers. The mini-Tn7 insertion system was used to introduce a controller into the genome of P. protegens Pf-5. The IPTG-inducible T7 RNAP expression system and a tetracycline resistant marker tetA was placed between two Tn7 ends (Tn7L and Tn7R). The controller plasmid pMR-85 was introduced into P. protegens Pf-5 by double transformation with pTNS3 encoding the TnsABCD transposase. A genomically-integrated controller located 25 bp downstream of the stop codon of glmS was confirmed by PCR and sequencing. A markerless insertion method using homologous recombination was employed in R. sp. IRBG74. A controller encoding inducible T7 RNAP system flanked by two homology fragments that enables the replacement of recA was cloned into a suicide plasmid. These controller plasmids (IPTG-inducible, pMR82-84; DAPG-inducible, pMR85) in E. coli was mobilized into R. sp. IRBG74 MR18 (AhsdR. Anif) by triparental mating, generating the controller strains (MR19, 20, 21 and 22, respectively). The controller integration in the genome was confirmed by gentamicin sensitivity and diagnostic PCR. All controllers were characterized in a manner identical to that described in genetic part characterization.

nifH promoter = assay: nifH expression analysis (PnifH-sfgfp, flow cytometry), A. caulinodans; type: cell-based, Azorhizobium caulinodans; details: nifA and rpoN under IPTG control, condition used for nitrogen fixation
Method: Flow cytometry. Cultures with fluorescence proteins were analyzed by flow cytometry using a BD Biosciences LSRII Forterssa analyzer with a 488 nm laser and 510/20-nm band pass filter for GFP and a 561 nm laser and 610/20 nm band pass filter for mCherry and mRFP1. Cells were diluted into 96-well plates containing phosphate buffered saline solution (PBS) supplemented with 2 mg/mL kanamycin after incubation. Cells were collected over 20,000 events which were gated using forward and side scatter to remove background events using FlowJo (TreeStar Inc., Ashland, Oreg.). The median fluorescence from cytometry histograms was calculated for all samples. The median autofluorescence was subtracted from the median fluorescence and reported as the fluorescence value in arbitrary unit (au).
nifH expression analysis. Complementation of NifA was tested using plasmid pMR-128 to 130 that contains the sfgfp fused to the nifH promoter in the A. caulinodans ΔnifA mutant. The inducible NifA/RpoN expression was provided by the plasmid pMR-121 into which sfgfp driven by the nifH promoter was added to analyze MN promoter activity, yielding pMR-131 (FIG. 29). […] Each of the plasmids was mobilized into the A. caulinodans ΔnifA mutant, which was grown following the same protocol as used for nitrogenase activity (described herein). […]

[3] = tested on: E. coli Marionette MG1655; details: 1 mM choline-Cl
Method: The reporter plasmid pMR-120 in which gfpmut3b is fused to the PT7(P2) promoter (FIGS. 28A-28C) was co-transformed to analyze the response functions of each of the 12 T7 RNAP controller plasmids. To characterize controllers, single colonies were inoculated into 1 ml LB supplemented with antibiotics in 96-deepwell plates (USA Scientific, Cat #18962110) and grown overnight at 30° C., 900 rpm in a Multitron incubator (INFORS HT, MD). 0.5 μl of overnight cultures was diluted into 200 μl of LB with antibiotics and appropriate inducers in 96-well plates (Thermo Scientific, Cat #12565215) and incubated for 6 h at 30° C., 1,000 rpm in an ELMI DTS-4 shaker (ELMI, CA). After growth, 4 μl of culture sample was diluted into 150 μl PBS with 2 mg/mL kanamycin for flow cytometry analysis.
Flow cytometry. Cultures with fluorescence proteins were analyzed by flow cytometry using a BD Biosciences LSRII Forterssa analyzer with a 488 nm laser and 510/20-nm band pass filter for GFP and a 561 nm laser and 610/20 nm band pass filter for mCherry and mRFP1. […] The median fluorescence from cytometry histograms was calculated for all samples. The median autofluorescence was subtracted from the median fluorescence and reported as the fluorescence value in arbitrary unit (au).

Compound | expression range of IPTG-inducible system (P. protegens Pf-5 [1]) | activation of GFP expression by the T7 promoter (P. protegens Pf-5 [2]) | dynamic range of response function from the nifH promoter (nifH promoter) | inducibility of the T7 promoter by controller plasmid [3]
CC(C)S[C@@H]1O[C@H](CO)[C@H](O)[C@H](O)[C@H]1O [IPTG, Isopropyl-beta-D-thiogalactoside] | 110 fold | 96 fold | 45 fold | –
C[N+](C)(C)CCO.[Cl-] [choline-Cl, Choline chloride] | – | – | – | not inducible
